Measured values: patent US6160004A, “C-10 carbon-substituted artemisinin-like trioxane compounds having antimalarial, antiproliferative and antitumor activities” (priority 1998, dated 2000)
Read-outs that look alike come from different tables or passages of the source.

Legend:
[1] = system: K-562; test: cells; format: cell-based; conditions: Homo sapiens
[2] = system: SR; test: cells; format: cell-based; conditions: Homo sapiens, 48 h; for CC50: read-out: Log10 LC50 (converted); for GI50: read-out: Log10 GI50 (converted)
[3] = system: HOP-92; test: cells; format: cell-based; conditions: Homo sapiens, HOP-92, non-small cell lung cancer, 48 h; for GI50: read-out: Log10 GI50 (converted)
[4] = system: NCI-H23; test: cells; format: cell-based; conditions: Homo sapiens; NCI-H23, non-small cell lung cancer, 48 h; read-out: Log10 GI50 (converted)
[5] = system: COLO 205; test: NCI 60 cell line panel screening assay (SRB), COLO 205; format: cell-based; conditions: Homo sapiens; for GI50: COLO 205, colon cancer, 48 h, read-out: Log10 GI50 (converted)
[6] = system: HCT-116; test: cells; format: cell-based; conditions: Homo sapiens, HCT-116, 48 h; for GI50: read-out: Log10 GI50 (converted)
[7] = system: HCT-15; test: cells; format: cell-based; conditions: Homo sapiens, HCT-15, colon cancer, 48 h; for GI50: read-out: Log10 GI50 (converted)
[8] = system: HT29; test: cells; format: cell-based; conditions: Homo sapiens, HT-29, HT29, colon cancer, 48 h; for GI50: read-out: Log10 GI50 (converted)
[9] = system: SNB-19; test: cells; format: cell-based; conditions: Homo sapiens, SNB-19, CNS cancer, 48 h; for GI50: read-out: Log10 GI50 (converted); for IC (TGI): read-out: Log10 TGI
[10] = system: SK-MEL-28; test: cells; format: cell-based; conditions: Homo sapiens, SK-MEL-28, melanoma, 48 h; for GI50: read-out: Log10 GI50 (converted)
[11] = system: UACC-257; test: cells; format: cell-based; conditions: Homo sapiens, UACC-257, 48 h; for GI50: read-out: Log10 GI50 (converted)
[12] = system: OVCAR-5; test: cells; format: cell-based; conditions: Homo sapiens
[13] = system: OVCAR-8; test: cells; format: cell-based; conditions: Homo sapiens; for GI50: read-out: Log10 GI50 (converted)
[14] = system: 786-0; test: cells; format: cell-based; conditions: Homo sapiens, 786-0, renal cancer, 48 h; for GI50: read-out: Log10 GI50 (converted); for IC (TGI): read-out: Log10 TGI
[15] = system: A498; test: cells; format: cell-based; conditions: Homo sapiens, A498, renal cancer, 48 h; for IC (TGI): read-out: Log10 TGI
[16] = system: SN12C; test: NCI 60 cell line panel screening assay (SRB), SN12C; format: cell-based; conditions: Homo sapiens, renal cancer, 48 h; for IC (TGI): read-out: Log10 TGI
[17] = system: TK-10; test: cells; format: cell-based; conditions: Homo sapiens, TK-10, renal cancer, 48 h; for GI50: read-out: Log10 GI50 (converted); for IC (TGI): read-out: Log10 TGI
[18] = system: MCF7; test: cells; format: cell-based; conditions: Homo sapiens, MCF7, breast cancer, 48 h
[19] = system: MDA-N; test: NCI 60 cell line panel screening assay (SRB), MDA-N; format: cell-based; conditions: Homo sapiens, breast cancer, 48 h, read-out: Log10 GI50 (converted)
[20] = system: MOLT-4; conditions: MOLT-4, FIG. 6
[21] = system: 60 cell line panel; test: NCI 60 cell line panel, whole panel
[22] = system: M14; test: NCI 60 cell line panel screening assay (SRB), M14; conditions: Homo sapiens, M14, 48 h; for CC50: read-out: Log10 LC50 (converted)
[23] = system: T-47D; test: NCI 60 cell line panel screening assay (SRB), T-47D; conditions: Homo sapiens, T47D, 48 h
[24] = system: CCRF-CEM; test: cells; format: cell-based; conditions: Homo sapiens, 48 h
[25] = system: SF-268; test: cells; format: cell-based; conditions: Homo sapiens, SF-268, CNS cancer, 48 h
[26] = system: OVCAR-3; test: cells; format: cell-based; conditions: Homo sapiens
[27] = system: SK-OV-3; test: cells; format: cell-based; conditions: Homo sapiens
[28] = system: CAKI-1; test: NCI 60 cell line panel screening assay (SRB), CAKI-1; format: cell-based; conditions: Homo sapiens
[29] = system: DU-145; test: cells; format: cell-based; conditions: Homo sapiens, DU-145, 48 h
[30] = system: BT-549; test: cells; format: cell-based; conditions: Homo sapiens, BT-549, breast cancer, 48 h
[31] = system: NCI-H322M; test: cells; conditions: Homo sapiens, 48 h
[32] = read-out: Log10 GI50 (converted)
[33] = read-out: Log10 LC50 (converted)

C[C@@H]1CC[C@H]2[C@@H](C)C(=O)O[C@@H]3O[C@@]4(C)CC[C@@H]1[C@]32OO4 [Artemisinin]
IC (TGI) ([1]; K562, K-562, leukemia, 48 h, read-out: Log10 TGI (converted)): 100 µM | CC50 [2]: > 100 µM | GI50 ([2]; leukemia): > 100 µM | GI50 [3]: > 100 µM | GI50 [4]: > 100 µM | GI50 [5]: > 100 µM | GI50 [6]: 100 µM | GI50 [7]: > 100 µM | IC (TGI) ([7]; read-out: Log10 TGI): > 100 µM | GI50 [8]: > 100 µM | GI50 [9]: > 100 µM | IC (TGI) [9]: > 100 µM | GI50 [10]: > 100 µM | GI50 [11]: > 100 µM | IC (TGI) ([11]; read-out: Log10 TGI (converted)): > 100 µM | GI50 ([12]; OVCAR-5, ovarian cancer, 48 h, read-out: Log10 GI50 (converted)): > 100 µM | GI50 ([13]; OVCAR-8, ovarian cancer, 48 h): > 100 µM | GI50 [14]: > 100 µM | IC (TGI) [14]: > 100 µM | GI50 [15, 32]: > 100 µM | IC (TGI) [15]: > 100 µM | IC (TGI) [16]: > 100 µM | GI50 [17]: > 100 µM | IC (TGI) [17]: > 100 µM | GI50 [18, 32]: > 100 µM | IC (TGI) ([18]; read-out: Log10 TGI): > 100 µM | GI50 [19]: > 100 µM | concentration for cytostasis (PG 0) [20]: greater than 10^-4 M | Delta of Log10 LC50 ([21]; panel): -4.00 | Range of Log10 TGI ([21]; panel): 0.06 | CC50 [22]: > 100 µM | IC (TGI) ([23]; read-out: Log10 TGI): > 100 µM

CC1CCC2C(C)C(CC(=O)c3cccc(C(=O)CC4OC5OC6(C)CCC7C(C)CCC(C4C)C57OO6)c3)OC3OC4(C)CCC1C32OO4 (centres unmarked) [Dimer 39]
GI50 [24, 32]: > 100 µM | CC50 [24, 33]: > 100 µM | IC (TGI) ([24]; leukemia, read-out: Log10 TGI): > 100 µM | CC50 ([1]; K562, 48 h, read-out: Log10 LC50 (converted)): > 100 µM | GI50 ([1]; K562, K-562, leukemia, 48 h, read-out: Log10 GI50 (converted)): > 100 µM | GI50 ([2]; leukemia): > 100 µM | CC50 ([2]; leukemia): > 100 µM | IC (TGI) ([2]; leukemia, read-out: Log10 TGI): > 100 µM | GI50 [3]: > 100 µM | CC50 [3, 33]: > 100 µM | GI50 [4]: > 100 µM | CC50 ([5]; COLO 205, 48 h, read-out: Log10 LC50 (converted)): > 100 µM | GI50 [5]: > 100 µM | GI50 [6]: > 100 µM | CC50 [6, 33]: > 100 µM | GI50 [7]: > 100 µM | CC50 [7, 33]: > 100 µM | GI50 [8]: > 100 µM | CC50 [8, 33]: > 100 µM | GI50 [25, 32]: > 100 µM | CC50 [25, 33]: > 100 µM | GI50 [9]: > 100 µM | CC50 [9, 33]: > 100 µM | IC (TGI) [9]: > 100 µM | GI50 [10]: > 100 µM | CC50 [10, 33]: > 100 µM | IC (TGI) ([10]; read-out: Log10 TGI): > 100 µM | IC (TGI) ([11]; read-out: Log10 TGI): > 100 µM | GI50 [11]: > 100 µM | CC50 [11, 33]: > 100 µM | IC (TGI) ([26]; OVCAR-3, 48 h, read-out: Log10 TGI): > 100 µM | GI50 ([26]; OVCAR-3, ovarian cancer, 48 h, read-out: Log10 GI50 (converted)): > 100 µM | CC50 ([26]; OVCAR-3, ovarian cancer, 48 h, read-out: Log10 LC50 (converted)): > 100 µM | IC (TGI) ([12]; OVCAR-5, 48 h, read-out: Log10 TGI): > 100 µM | CC50 ([12]; OVCAR-5, ovarian cancer, 48 h, read-out: Log10 LC50 (converted)): > 100 µM | IC (TGI) ([13]; OVCAR-8, 48 h, read-out: Log10 TGI): > 100 µM | GI50 ([13]; OVCAR-8, ovarian cancer, 48 h): > 100 µM | CC50 ([13]; OVCAR-8, ovarian cancer, 48 h, read-out: Log10 LC50 (converted)): > 100 µM | IC (TGI) ([27]; SK-OV-3, 48 h, read-out: Log10 TGI): > 100 µM | GI50 ([27]; SK-OV-3, ovarian cancer, 48 h, read-out: Log10 GI50 (converted)): > 100 µM | CC50 ([27]; SK-OV-3, ovarian cancer, 48 h, read-out: Log10 LC50 (converted)): > 100 µM | GI50 [14]: > 100 µM | CC50 [14, 33]: > 100 µM | IC (TGI) [14]: > 100 µM | CC50 [15, 33]: > 100 µM | IC (TGI) [15]: > 100 µM | CC50 ([28]; CAKI-1, 48 h, read-out: Log10 LC50 (converted)): > 100 µM | GI50 ([28]; CAKI-1, renal cancer, 48 h, read-out: Log10 GI50 (converted)): > 100 µM | IC (TGI) ([28]; CAKI-1, renal cancer, 48 h, read-out: Log10 TGI (converted)): > 100 µM | GI50 [16, 32]: > 100 µM | CC50 [16, 33]: > 100 µM | IC (TGI) [16]: > 100 µM | GI50 [17]: > 100 µM | CC50 [17, 33]: > 100 µM | IC (TGI) [17]: > 100 µM | GI50 [29, 32]: > 100 µM | CC50 [29, 33]: > 100 µM | IC (TGI) ([29]; read-out: Log10 TGI): > 100 µM | CC50 [18, 33]: > 100 µM | GI50 [19]: > 100 µM | GI50 [30, 32]: > 100 µM | CC50 [30, 33]: > 100 µM | concentration for cytostasis (PG 0) [20]: greater than 10^-4 M | GI50 [31, 32]: > 100 µM | CC50 [31, 33]: > 100 µM | IC (TGI) ([31]; read-out: Log10 TGI): > 100 µM | IC (TGI) ([21]; 60 cell, read-out: MG MID of Log10 TGI): 100 µM | CC50 ([21]; Homo sapiens, 60 cell, read-out: MG MID of Log10 LC50 (converted)): 100 µM | Delta of Log10 TGI ([21]; panel): 0.00 | Range of Log10 TGI ([21]; panel): 0.00 | GI50 [22, 32]: > 100 µM | CC50 [22]: > 100 µM | IC (TGI) ([22]; read-out: Log10 TGI): > 100 µM | GI50 [23, 32]: > 100 µM | CC50 [23, 33]: > 100 µM
